The record followed here is US20240279278A1, “NMU RECEPTOR 2 AGONISTS” (Boehringer Ingelheim International GmbH, priority 2023, published 2024).

One test has as its target T1, human NMUR1 receptor (Homo sapiens, UniProt Q9HB89).
T1 construct: host or cells: CHO-K1
T1 sequence (Q9HB89 24-426 limits assumed): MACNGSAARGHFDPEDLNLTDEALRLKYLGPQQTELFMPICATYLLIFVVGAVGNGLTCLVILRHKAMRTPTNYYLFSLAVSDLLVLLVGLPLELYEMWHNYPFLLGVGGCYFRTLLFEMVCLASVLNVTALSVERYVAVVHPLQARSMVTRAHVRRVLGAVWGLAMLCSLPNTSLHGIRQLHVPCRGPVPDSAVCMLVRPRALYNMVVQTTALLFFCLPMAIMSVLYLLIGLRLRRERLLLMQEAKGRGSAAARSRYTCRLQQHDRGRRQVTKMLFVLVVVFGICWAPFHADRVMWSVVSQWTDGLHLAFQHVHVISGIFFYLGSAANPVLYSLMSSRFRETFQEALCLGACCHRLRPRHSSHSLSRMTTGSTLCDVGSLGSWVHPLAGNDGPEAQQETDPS
The test is described as follows: Radioligand binding competition assay (RLB), human NMUR1 receptor binding (SPA, [125I]-Neuromedin U-25). The settings on record: CHO-K1 hNMUR1 cell membranes, 4 hours at RT. The text has this:
Example 2: Radioligand Binding Competition Assay (RLB) Human NMUR1 Receptor Binding 1) Membranes The test is based on membranes prepared from a human NMUR1/Apoaequorin Stable Cell Line (Creative Biogene, Cat. No. CSC-RG1308). Cell Line Description: CHO-NMUR1 cell line is clonally-derived from a CHO-K1 cell line, which has been transfected with a bicistronic expression plasmid containing the sequence coding for the human neuromedin U receptor 1 (NM_006056.4, 180 to 1391). Mosaic-ID: CL16550614 Membrane preparation: Cells were broken by nitrogen cavitation (900 psi, 1 hour). Intact cells were removed by centrifugation (400 rcf, 10 minutes, 4° C.) before the crude membrane fraction was collected by ultracentrifugation (20.000 rcf, 1 hour, 4° C.). 2) Human NMUR1 Receptor Binding Assay (Radioligand: [125l]-Neuromedin U-25) In this Scintillation Proximity Assay (SPA) design, the membranes immobilize directly to the PVT-WGA-PEI type A beads (polyethyleneimine treated polyvinyltoluene beads coupled to wheatgerm agglutinin, Perkin Elmer) via interactions of wheat germ agglutinate and glycosylated membrane structures. Thereby the radioactively la-belled ligand, bound to NMUR1 receptors on the membrane, comes in close proximity to the solid scintillator of the PVT bead. Radioactive human neuromedin U-25 then stimulates the scintillant to emit light. In contrast, radioligand not bound to the receptor is too distant from the bead to elicit a signal. For the Scintillation Proximity Assay the CHO-K1 hNMUR1 cell membranes and SPA-beads are diluted to concentrations, which assure a robust signal to background ratio. The SPA incubation buffer consists of 25 mM Hepes (pH=7.0), 5 mM MgCl2, 1 mM CaCl2, 10 ug/mL Saponine and 0.1% bovine serum albumin and is used for all dilutions. Final assay setup in 96-well plate: 20 μL of 10× test compound dilutions+40 μL of 5× [125l]-Neuromedin U-25 (1× approx. 30 pM; 2000 μCi/mmol (μCi=microcurie))+60 μL membrane dilution (approx. 1.0 μg membrane protein)+80 μL SPA bead dilution (250 μg). The assay is incubated for 4 hours at RT, including controls for specific binding where no displacer is added and non-specific binding by adding unlabeled hNMU-25 at 100 nM. Bound radioactivity is determined by scintillation counting (MicroBeta Trilux 1450, Perkin Elmer, detection of 125I decay). […] The system assumes one binding site with no relevant radioligand depletion (<10%) and that the binding is reversible and at equilibrium. [formula] [formula]

The target of the next test is human NMUR2 receptor (Homo sapiens, UniProt Q9GZQ4). As to the kind of experiment: Radioligand binding competition assay (RLB), human NMUR2 receptor binding (SPA, [125I]-Neuromedin U-25). Set-up: host or cells: CHO-K1. The settings on record: CHO-K1 hNMUR2 cell membranes, 4 hours at RT. The text has this: Example 1: Radioligand Binding Competition Assay (RLB) Human NMUR2 Receptor Binding
The test is based on membranes prepared from a Human NMUR2/Apoaequorin Stable Cell Line (Creative Biogene, Cat. No. CSC-RG1309).
Cell Line Description: CHO-NMUR2 cell line is clonally derived from a CHO-K1 cell line, which has been transfected with a bicistronic expression plasmid containing the sequence coding for the human neuromedin U receptor 2 (AF242874.1). MOSAIC-ID: CL16550616.
Membrane preparation: Cells were broken by nitrogen cavitation (900 psi, 1 hour). Intact cells were removed by centrifugation (400 rcf (relative centrifugal force), 10 minutes, 4° C.) before the crude membrane fraction was collected by ultracentrifugation (20.000 rcf, 1 hour, 4° C.).
2) Human NMUR2 Receptor Binding Assay (Radioligand: [125I]-Neuromedin U-25 (Human))
In this Scintillation Proximity Assay (SPA) design, the membranes immobilize directly to the PVT-WGA-PEI type A beads (polyethyleneimine treated polyvinyltoluene beads coupled to wheatgerm agglutinin, Perkin Elmer) via interactions of wheat germ agglutinate and glycosylated membrane structures. Thereby the radioactively la-belled ligand, bound to NMUR2 receptors on the membrane, comes in close proximity to the solid scintillator of the PVT bead. Radioactive human neuromedin U-25 then stimulates the scintillant to emit light. In contrast, radioligand not bound to the receptor is too distant from the bead to elicit a signal.
For the Scintillation Proximity Assay the CHO-K1 hNMUR2 cell membranes and SPA-beads are diluted to concentrations, which assure a robust signal to background ratio. The SPA incubation buffer consists of 25 mM Hepes (pH=7.0), 5 mM MgCl2, 1 mM CaCl2, 10 ug/mL Saponine and 0.1% bovine serum albumin and is used for all dilutions.
Final assay setup in 96-well plate: 20 μL of 10× test compound dilutions+40 μL of 5× [125l]-Neuromedin U-25 (1× approx. 30 pM; 2000 μCi/mmol)+60 μL membrane dilution (approx. 2.5 μg membrane protein)+80 μL SPA bead dilution (0.75 mg).
The assay is incubated for 4 hours at RT, including controls for specific binding where no displacer is added and non-specific binding by adding unlabeled hNMU-25 at 100 nM. Bound radioactivity is determined by scintillation counting (MicroBeta Trilux 1450, Perkin Elmer, detection of 125I decay). […] The system assumes one binding site with no relevant radioligand depletion (<10%) and that the binding is reversible and at equilibrium.

Residues, ends and D or L forms follow the SMILES beside them.

Sequence of human NMUR2 receptor (Q9GZQ4 whole entry): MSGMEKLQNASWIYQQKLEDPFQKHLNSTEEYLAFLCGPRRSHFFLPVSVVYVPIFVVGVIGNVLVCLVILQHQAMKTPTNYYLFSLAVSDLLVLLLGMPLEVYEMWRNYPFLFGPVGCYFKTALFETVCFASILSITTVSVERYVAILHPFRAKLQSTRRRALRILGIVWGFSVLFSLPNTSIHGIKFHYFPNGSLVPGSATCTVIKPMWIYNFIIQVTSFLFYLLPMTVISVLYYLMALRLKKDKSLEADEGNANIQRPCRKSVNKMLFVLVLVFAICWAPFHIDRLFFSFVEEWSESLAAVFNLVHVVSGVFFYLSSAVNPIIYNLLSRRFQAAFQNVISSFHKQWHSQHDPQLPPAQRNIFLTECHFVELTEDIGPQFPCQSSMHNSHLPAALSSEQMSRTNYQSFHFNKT

For orientation: Ki means the equilibrium dissociation constant of an inhibitor or competing ligand from its target. In the case of `CCCC[C@H](NC(=O)[C@H](CC(C)C)N(C)C(=O)[C@H](Cc1ccccc1)NC(=O)[C@H](Cc1ccc(O)cc1)NC(=O)CN1CCN(CCNC(=O)CN(C)C(=O)CN(C)C(=O)CN(C)C(=O)CN(C)C(=O)CN(C)C(=O)CN(C)C(=O)CN(C)C(=O)CN(C)C(=O)CN(C)C(=O)CN(C)C(=O)CN(C)C(=O)CN(C)C(=O)CN(C)C(=O)CN(C)C(=O)CN(C)C(=O)CC[C@H](NC(=O)CC[C@H](NC(=O)CC[C@H](NC(=O)CCCCCCCCCCCCCCCCCCC(=O)O)C(=O)O)C(=O)O)C(=O)O)CC1)C(=O)N[C@@H](CCCNC(=N)N)C(=O)N1CCC[C@H]1C(=O)N[C@@H](CCCNC(=N)N)C(=O)NCC(N)=O` [Compound 9, C20DA-gGlu3-Sar15-AEPipAc-Tyr-Phe-NMeLeu-Nle-Arg-Pro-Arg-Gly-NH2] (HELM PEPTIDE1{[O=C(O)CCCCCCCCCCCCCCCCCCC(=O)[*:2]].[gGlu].[gGlu].[gGlu].[Sar].[Sar].[Sar].[Sar].[Sar].[Sar].[Sar].[Sar].[Sar].[Sar].[Sar].[Sar].[Sar].[Sar].[Sar].[O=C(CN1CCN(CCN[*:1])CC1)[*:2]].Y.F.[meL].[Nle].R.P.R.G.[am]}$$$$V2.0), the values for the Ki on human NMUR1 receptor and at human NMUR2 receptor were over 10000 nM and 58.3 nM, respectively.
As to `CCCC[C@H](NC(=O)[C@H](CC(C)C)N(C)C(=O)[C@H](Cc1ccccc1)NC(=O)[C@H](Cc1ccc(O)cc1)NC(=O)CN1CCN(CCNC(=O)CN(C)C(=O)CN(C)C(=O)CN(C)C(=O)CN(C)C(=O)CN(C)C(=O)CN(C)C(=O)CN(C)C(=O)CN(C)C(=O)CN(C)C(=O)CC[C@H](NC(=O)CC[C@H](NC(=O)CC[C@H](NC(=O)CCCCCCCCCCCCCCCCC(=O)O)C(=O)O)C(=O)O)C(=O)O)CC1)C(=O)N[C@@H](CCN)C(=O)N1CCC[C@H]1C(=O)N[C@@H](CCCNC(=N)N)C(=O)NCC(N)=O` [Compound 24, C18DA-gGlu3-Sar9-AEPipAc-Tyr-Phe-NMeLeu-Nle-Dbu-Pro-Arg-Gly-NH2] (HELM PEPTIDE1{[O=C(O)CCCCCCCCCCCCCCCCC(=O)[*:2]].[gGlu].[gGlu].[gGlu].[Sar].[Sar].[Sar].[Sar].[Sar].[Sar].[Sar].[Sar].[Sar].[O=C(CN1CCN(CCN[*:1])CC1)[*:2]].Y.F.[meL].[Nle].[Dab].P.R.G.[am]}$$$$V2.0), the Ki is over 10000 nM on human NMUR1 receptor and 52.3 nM on human NMUR2 receptor.
Take `CCCC[C@H](NC(=O)[C@H](CC(C)C)N(C)C(=O)[C@H](Cc1ccccc1)NC(=O)[C@H](Cc1ccc(O)cc1)NC(=O)CN1CCN(CCNC(=O)CN(C)C(=O)CN(C)C(=O)CN(C)C(=O)CN(C)C(=O)CN(C)C(=O)CN(C)C(=O)CN(C)C(=O)CN(C)C(=O)CN(C)C(=O)CN(C)C(=O)CN(C)C(=O)CN(C)C(=O)CN(C)C(=O)CN(C)C(=O)CN(C)C(=O)CC[C@H](NC(=O)CC[C@H](NC(=O)CC[C@H](NC(=O)CCCCCCCCCCCCCCCCCCC(=O)O)C(=O)O)C(=O)O)C(=O)O)CC1)C(=O)N[C@@H](CCN)C(=O)N(C)[C@@H](C)C(=O)N[C@@H](CCCNC(=N)N)C(=O)NCC(N)=O` [Compound 43, C20DA-gGlu3-Sar15-AEPipAc-Tyr-Phe-NMeLeu-Nle-Dbu-NMeAla-Arg-Gly-NH2] (HELM PEPTIDE1{[O=C(O)CCCCCCCCCCCCCCCCCCC(=O)[*:2]].[gGlu].[gGlu].[gGlu].[Sar].[Sar].[Sar].[Sar].[Sar].[Sar].[Sar].[Sar].[Sar].[Sar].[Sar].[Sar].[Sar].[Sar].[Sar].[O=C(CN1CCN(CCN[*:1])CC1)[*:2]].Y.F.[meL].[Nle].[Dab].[meA].R.G.[am]}$$$$V2.0): the Ki on human NMUR1 receptor is over 10000 nM; on human NMUR2 receptor it was 32.6 nM.
Regarding `CCCC[C@H](NC(=O)[C@H](CC(C)C)N(C)C(=O)[C@H](Cc1ccccc1)NC(=O)[C@H](Cc1ccc(O)cc1)NC(=O)CN1CCN(CCNC(=O)CN(C)C(=O)CN(C)C(=O)CN(C)C(=O)CN(C)C(=O)CN(C)C(=O)CN(C)C(=O)CN(C)C(=O)CN(C)C(=O)CN(C)C(=O)CC[C@H](NC(=O)CC[C@H](NC(=O)CC[C@H](NC(=O)CCCCCCCCCCCCCCCCC(=O)O)C(=O)O)C(=O)O)C(=O)O)CC1)C(=O)N[C@@H](CCN)C(=O)N(C)[C@@H](C)C(=O)N[C@@H](CCCNC(=N)N)C(=O)NCC(N)=O` [Compound 28, C18DA-gGlu3-Sar9-AEPipAc-Tyr-Phe-NMeLeu-Nle-Dbu-NMeAla-Arg-Gly-NH2] (HELM PEPTIDE1{[O=C(O)CCCCCCCCCCCCCCCCC(=O)[*:2]].[gGlu].[gGlu].[gGlu].[Sar].[Sar].[Sar].[Sar].[Sar].[Sar].[Sar].[Sar].[Sar].[O=C(CN1CCN(CCN[*:1])CC1)[*:2]].Y.F.[meL].[Nle].[Dab].[meA].R.G.[am]}$$$$V2.0), the Ki was over 10000 nM on human NMUR1 receptor and 56.2 nM on human NMUR2 receptor.
Consider `CCCC[C@H](NC(=O)[C@H](CC(C)C)N(C)C(=O)[C@H](Cc1ccccc1)NC(=O)[C@H](Cc1ccc(O)cc1)NC(=O)CN1CCN(CCNC(=O)CN(C)C(=O)CN(C)C(=O)CN(C)C(=O)CN(C)C(=O)CN(C)C(=O)CN(C)C(=O)CN(C)C(=O)CN(C)C(=O)CN(C)C(=O)CN(C)C(=O)CN(C)C(=O)CN(C)C(=O)CC[C@H](NC(=O)CC[C@H](NC(=O)CC[C@H](NC(=O)CCCCCCCCCCCCCCCCC(=O)O)C(=O)O)C(=O)O)C(=O)O)CC1)C(=O)N[C@@H](CCCN)C(=O)N(C)[C@@H](C)C(=O)N[C@@H](CCCNC(=N)N)C(=O)NCC(N)=O` [Compound 20, C18DA-gGlu3-Sar12-AEPipAc-Tyr-Phe-NMeLeu-Nle-Orn-NMeAla-Arg-Gly-NH2], for which the Ki at human NMUR1 receptor was over 10000 nM; on human NMUR2 receptor, 23.7 nM.
With `CCCC[C@H](NC(=O)[C@H](CC(C)C)N(C)C(=O)[C@H](Cc1ccccc1)NC(=O)[C@H](Cc1ccc(O)cc1)NC(=O)CN1CCN(CCNC(=O)CN(C)C(=O)CN(C)C(=O)CN(C)C(=O)CN(C)C(=O)CN(C)C(=O)CN(C)C(=O)CN(C)C(=O)CN(C)C(=O)CN(C)C(=O)CN(C)C(=O)CN(C)C(=O)CN(C)C(=O)CC[C@H](NC(=O)CC[C@H](NC(=O)CC[C@H](NC(=O)CCCCCCCCCCCCCCCCC(=O)O)C(=O)O)C(=O)O)C(=O)O)CC1)C(=O)N[C@@H](CCN)C(=O)N(C)[C@@H](C)C(=O)N[C@@H](CCCNC(=N)N)C(=O)NCC(N)=O` [Compound 38, C18DA-gGlu3-Sar12-AEPipAc-Tyr-Phe-NMeLeu-Nle-Dbu-NMeAla-Arg-Gly-NH2], the values for the Ki at human NMUR1 receptor and on human NMUR2 receptor were over 10000 nM and 33.8 nM, respectively.
